Measured values published in patent US8389541B2, “Inhibitors of protein tyrosine kinase activity” (MethylGene Inc., priority 2007, dated 2013).
Like-named read-outs stand apart in the source and are kept apart here.

Key:
MKN45 tumor = assay: In vivo solid tumor disease model, MKN45; design: species or system mice; settings: Mus musculus, MKN-45, po, read-out: Tumor Growth Inhibition (%); for inhibition in vivo at 20 mg/kg: MKN45, 20 mg/kg orally daily; for inhibition in vivo at 40 mg/kg: 336 h, MKN45, 40 mg/kg orally daily, 14 days
VEGF receptor KDR = molecular target: T1, VEGF receptor KDR (Homo sapiens, UniProt P35968); assay: In vitro receptor tyrosine kinase assay (DELFIA), VEGF receptor KDR; assay type: biochemical; settings: GST-VEGFR2 806-1356, 0.6 uM ATP; read-out: VEGFR IC50
T1 construct: made in house; host or cells: Sf9 cells (Spodoptera frugiperda), baculovirus
Source text: In the case of VEGF receptor KDR a 1.6-kb cDNA corresponding to the catalytic domain of VEGFR2 or KDR (Genbank accession number AF035121 amino acid 806 to 1356) is cloned into the Pst I site of the pDEST20 Gateway vector (Invitrogen) for the production of a GST-tagged version of that enzyme.
The GST-VEGFR2806-1356 protein is expressed in Sf9 cells (Spodoptera frugiperda) upon infection with recombinant baculovirus construct.
The supernatant is loaded onto a GST-agarose column (Sigma) equilibrated with PBS pH 7.3. Following a four column volume (CV) wash with PBS pH 7.3+1% Triton X-100 and 4 CV wash with buffer B (50 mM Tris pH 8.0, 20% glycerol and 100 mM NaCl), bound proteins are step eluted with 5 CV of buffer B supplemented with 5 mM DTT and 15 mM glutathion. […] Final GST-VEGFR2806-1356 protein preparations concentrations are about 0.7 mg/ml with purity approximating 70%.

A549 cells = assay: Wound healing assay in A549 cells (HGF-stimulated); assay type: cell-based; settings: Homo sapiens, last dose that inhibited gap closing by more than 25%, 24 h, read-out: A549 WOUND_HEALING IC50
Protocol: Wound healing assay in A549 cells. A549 cells (ATCC) are seeded in DMEM low glucose medium complemented with 10% FBS into 24-well plates at a density of 7.5×10^4 cells/well and grown to confluence (48 h). Inhibitors were added to the medium at a range of doses (0.00032-10 uM) for 3 h at which point a gap is introduced by scraping cells with a P1000 pipette tip. Cells are then stimulated to migrate by the addition of HGF (in the form of conditioned medium from 293T cells over-expressing the human HGF gene) and the culture is continued for 24 h. […] For the purpose of standardization, a control is carried on every assay plates.

DU145 cells = assay: Scatter assay in DU145 cells (HGF-stimulated); assay type: cell-based; settings: Homo sapiens, DU-145, last dose that created an inhibitory effect on scattering, 24 h, read-out: DU145 SCATT. INHIB IC50
Protocol: Scatter assays in DU145. The scatter assay is performed as described previously (Miura H, Nishimura K, Tsujimura A, Matsumiya K, Matsumoto K, Nakamura T, et al. Effects of hepatocyte growth factor on E-cadherin-mediated cell-cell adhesion in DU145 prostate cancer cells. Urology 2001; 58(6):1064-9) for DU145 prostate carcinoma cells with the indicated modifications. In brief, DU145 cells (ATCC) are seeded in 24-well plates at a density of 7×10^3 cells/well in MEM medium complemented with 10% FBS and cultured for 48 h, to allow the formation of small compact colonies of cells. Inhibitors are subsequently added at a range of doses (0.00032-10 uM) for 3 h. Cells are then stimulated to migrate by the addition of HGF (in the form of conditioned medium from 293T cells over-expressing the human HGF gene) and the culture is continued for another 24 h. The IC50 values is defined as the last dose that created an inhibitory effect on scattering. For the purpose of standardization a control is carried on every test plates for the DU145 scattering assays.

c-Met = molecular target: T2, c-Met (Homo sapiens, UniProt P08581); assay: Inhibition of c-Met phosphorylation in MKN45 cells (direct ELISA); assay type: cell-based; settings: 3 h treatment, read-out: CMET ELISA IN MKN45 IC50
T2 construct: endogenous in cells; host or cells: MKN45 gastric carcinoma cells
Source text: The following assay is used to determine inhibition of c-Met phosphorylation.
The c-Met receptor is expressed in numerous cancer cell lines derived from tumors of epithelial origin. In MKN45 gastric carcinoma cells the c-Met gene is amplified, resulting in several-fold overexpression of the receptor and its constitutive activation. For this reason constitutively high levels of ERK1/2 are also detected in these cells, independently of HGF-added stimulation (Smolen G A, Sordella R, Muir B, Mohapatra G, Barmettler A, Archibald H, et al. Amplification of MET may identify a subset of cancers with extreme sensitivity to the selective tyrosine kinase inhibitor PHA-665752. Proc Natl Acad Sci USA 2006). We have developed a sensitive method to follow c-Met phosphorylation in these cells. In previous studies with earlier generation c-Met inhibitors, we established that the IC50s for the inhibition of c-Met phosphorylation were identical using this novel ELISA approach and standard western blot procedure, with antibodies directed against the activating autocatalysis tyrosine residues of c-MET (Tyr Y1230-34-35).
Cell treatments: MKN45 cells are seeded into wells of 96-well plates at a density of 3×10^4 cells/well in RPMI medium supplemented with 10% FBS. HA-TPR-RON expressing 293T (clone 18) cells are seeded into wells of 96-well plates at a density of 3×10^4 cells/well in DMEM medium supplemented with 10% FBS. Cells are grown for 48 h prior to treatments with compounds of interest. Inhibitors are added to the medium in triplicate wells at the indicated doses. After 3 h of treatment, media is aspirated and cells are lysed by one freeze-thaw cycle in 50 μL/well hypotonic lysis buffer (25 mM HEPES pH 7.5, 10 mM NaCl with 1 mM 4-(2-aminoethyl)benzenesulfonyl fluoride hydrochloride, 200 μM sodium orthovanadate, 1 mM sodium fluoride, 10 μg/mL of leupeptin, 10 μg/mL of aprotinin/mL, 1 μg/mL of pepstatin and 50 μg/mL Na-p-tosyl-L-lysine chloromethyl ketone hydrochloride.
Detection of phosphorylated c-Met by direct ELISA: Lysate samples (5 μL) from wells of treatment plates are transferred to 80 μL of binding buffer (25 mM HEPES pH 7.5, 200 mM NaCl) in wells of high binding white polysterene 96-well plates (Corning). After an overnight protein binding incubation at 4° C., lysates are aspirated and wells are blocked for 1 h at 37° C. in TBST supplemented with 5% BSA. Plates are incubated with the primary antibodies anti-phospho-Tyrosine (Millipore, 4G10) diluted 1/15000 in TBST supplemented with 5% BSA for 1 h at room temperature. Plates are washed 3 times on a plate washer (SkanWasher, Molecular Devises), and incubated with the reporter antibody […] (Sigma) diluted 1/15000 in TBST supplemented with 5% BSA, for 1 h at room temperature. Plates are washed 3 times with TBST using on a plate washer and subsequently incubated with chemiluminescent substrate solution (ECL, Roche). Luminescence signal is captured on a Polar Star Optima apparatus (BMG LabTech).
Average values of the triplicate samples are used to prepare IC50 curves using a 4-parameter fit model. These curves are calculated using, for example, GraFit 5.0 software. For assay standardization purpose, an internal control is included on each experimental test plate.

[1] = molecular target: recombinant human c-Met/HGF receptor (Homo sapiens, UniProt P08581); assay: In vitro receptor tyrosine kinase assay (DELFIA), c-Met/HGF receptor
Chain of recombinant human c-Met/HGF receptor (P08581 1078-1337): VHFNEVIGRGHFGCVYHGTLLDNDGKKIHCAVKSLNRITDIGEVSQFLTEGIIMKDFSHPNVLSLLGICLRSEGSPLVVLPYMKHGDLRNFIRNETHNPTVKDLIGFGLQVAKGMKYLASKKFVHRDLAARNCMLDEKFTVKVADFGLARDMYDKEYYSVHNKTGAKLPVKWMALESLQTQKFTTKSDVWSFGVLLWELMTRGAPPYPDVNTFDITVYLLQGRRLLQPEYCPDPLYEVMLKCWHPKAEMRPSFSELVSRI

T2 sequence (P08581 25-1390): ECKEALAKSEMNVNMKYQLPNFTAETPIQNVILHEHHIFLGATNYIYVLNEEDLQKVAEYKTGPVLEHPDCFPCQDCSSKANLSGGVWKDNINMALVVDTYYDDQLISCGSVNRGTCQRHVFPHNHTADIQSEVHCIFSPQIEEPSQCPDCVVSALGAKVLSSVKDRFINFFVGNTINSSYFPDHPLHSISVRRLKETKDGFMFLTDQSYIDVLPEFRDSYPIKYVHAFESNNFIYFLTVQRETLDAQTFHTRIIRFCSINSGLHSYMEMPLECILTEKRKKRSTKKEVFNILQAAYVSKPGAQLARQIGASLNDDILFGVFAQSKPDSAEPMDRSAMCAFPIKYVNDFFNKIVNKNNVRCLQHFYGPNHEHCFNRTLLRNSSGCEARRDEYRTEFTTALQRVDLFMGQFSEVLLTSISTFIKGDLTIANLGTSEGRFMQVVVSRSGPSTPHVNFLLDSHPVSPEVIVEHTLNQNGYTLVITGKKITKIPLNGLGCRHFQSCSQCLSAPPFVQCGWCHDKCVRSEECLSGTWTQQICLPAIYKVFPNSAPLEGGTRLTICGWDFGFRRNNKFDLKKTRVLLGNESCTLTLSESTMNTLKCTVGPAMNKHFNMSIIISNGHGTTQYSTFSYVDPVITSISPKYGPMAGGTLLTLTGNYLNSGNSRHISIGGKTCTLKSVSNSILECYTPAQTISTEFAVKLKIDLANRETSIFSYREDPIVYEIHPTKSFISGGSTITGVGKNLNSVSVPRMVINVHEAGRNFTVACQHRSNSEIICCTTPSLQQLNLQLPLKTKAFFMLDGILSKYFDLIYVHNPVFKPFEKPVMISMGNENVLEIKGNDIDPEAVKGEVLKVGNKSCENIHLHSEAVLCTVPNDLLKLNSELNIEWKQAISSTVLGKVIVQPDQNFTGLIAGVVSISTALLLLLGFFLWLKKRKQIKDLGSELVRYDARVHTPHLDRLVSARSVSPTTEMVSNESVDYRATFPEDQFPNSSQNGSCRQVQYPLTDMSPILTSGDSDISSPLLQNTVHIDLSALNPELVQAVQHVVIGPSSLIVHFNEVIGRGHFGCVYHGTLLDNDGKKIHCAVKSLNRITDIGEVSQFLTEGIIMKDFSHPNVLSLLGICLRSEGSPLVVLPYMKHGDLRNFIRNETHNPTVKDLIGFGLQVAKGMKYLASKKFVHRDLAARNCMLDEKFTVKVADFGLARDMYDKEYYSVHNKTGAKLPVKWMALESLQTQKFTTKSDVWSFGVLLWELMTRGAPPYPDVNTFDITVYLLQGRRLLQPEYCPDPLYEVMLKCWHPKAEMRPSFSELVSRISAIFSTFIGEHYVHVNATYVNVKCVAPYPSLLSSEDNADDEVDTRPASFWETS
T1 sequence (P35968 806-1356): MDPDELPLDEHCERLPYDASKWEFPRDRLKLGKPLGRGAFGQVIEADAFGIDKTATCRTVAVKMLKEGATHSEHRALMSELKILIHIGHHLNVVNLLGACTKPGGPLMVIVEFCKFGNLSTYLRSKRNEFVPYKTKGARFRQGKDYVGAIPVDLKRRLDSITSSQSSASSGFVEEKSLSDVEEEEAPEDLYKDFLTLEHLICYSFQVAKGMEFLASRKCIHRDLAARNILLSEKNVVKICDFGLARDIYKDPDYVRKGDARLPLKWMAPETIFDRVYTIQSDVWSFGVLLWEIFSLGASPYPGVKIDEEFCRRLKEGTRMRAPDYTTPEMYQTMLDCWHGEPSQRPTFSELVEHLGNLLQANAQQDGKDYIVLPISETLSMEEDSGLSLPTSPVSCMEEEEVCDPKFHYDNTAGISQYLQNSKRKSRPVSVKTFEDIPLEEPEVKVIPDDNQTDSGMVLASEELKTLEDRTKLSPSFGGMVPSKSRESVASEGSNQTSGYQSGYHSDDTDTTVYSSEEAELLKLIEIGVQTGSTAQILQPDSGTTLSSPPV

SMILES | inhibition in vivo at 20 mg/kg (MKN45 tumor; 312 h, 13 days) [%] | inhibition in vivo at 40 mg/kg (MKN45 tumor) [%] | inhibition in vivo at 20 mg/kg (MKN45 tumor; 192 h, 8 days) [%] | IC50 (VEGF receptor KDR) [µM] | IC50 (A549 cells) [µM] | IC50 (DU145 cells) [µM] | IC50 (c-Met) [µM] | IC50 [1] [µM] | inhibition in vivo at 20 mg/kg (MKN45 tumor; 168 h, 7 days) [%]
COCCNCc1cnc(-c2cc3nccc(Oc4ccc(NC(=O)CC(=O)Nc5ccccc5)cc4F)c3s2)n1C [drawing 372] | 25 to 50 | 25 to 50 |  |  |  |  |  |  | 
COCCNCCn1cc(-c2cc3nccc(Oc4ccc(NC(=O)CC(=O)N(C)c5ccccc5)cc4F)c3s2)cn1 [drawing 369] |  | < 25 |  |  |  |  |  |  | 
COCCNCc1ccc(-c2cc3nccc(Oc4ccc(NC(=O)C5(C(=O)Nc6ccccc6)CC5)cc4F)c3s2)cc1 [drawing 364] |  |  | ≥ 75 |  |  |  |  |  | 
COCCNCc1ccc(-c2cc3nccc(Oc4ccc(NC(=S)NC(=O)Cc5ccc(F)cc5)cc4F)c3s2)cn1 [drawing 363] |  |  | 25 to 50 |  |  |  |  |  | 
COCCNCc1ccc(-c2cc3nccc(Oc4ccc(NC(=S)NC(=O)Cc5ccccc5)cc4F)c3s2)cn1 [drawing 362] |  |  | < 25 |  |  |  |  |  | 
COC[C@H](C)NCc1ccc(-c2cc3nccc(Oc4ccc(NC(=O)C5(C(=O)Nc6ccccc6)CC5)cc4F)c3s2)cc1 |  |  |  | < 0.25 | < 0.25 | < 0.25 | < 0.25 | < 0.25 | 
COCCNCc1ccc(-c2cc3nccc(Oc4ccc(NC(=S)NC(=O)Cc5ccc(F)cc5)cc4F)c3s2)cn1 [drawing 309] |  |  |  | < 0.25 | 0.25 to 0.5 | < 0.25 | < 0.25 | < 0.25 | 
O=C(Cc1ccc(F)cc1)NC(=S)Nc1ccc(Oc2ccnc3cc(-c4ccc(CNC5CC5)cc4)sc23)c(F)c1 |  |  |  | < 0.25 | 0.25 to 0.5 | 0.25 to 0.5 | < 0.25 | < 0.25 | 
COC[C@H](C)NCc1cccc(-c2cc3nccc(Oc4ccc(NC(=S)NC(=O)Cc5ccc(F)cc5)cc4F)c3s2)c1 [drawing 297] |  |  |  | < 0.25 | 0.25 to 0.5 | < 0.25 | < 0.25 | < 0.25 | 
COC[C@H](C)NCc1cccc(-c2cc3nccc(Oc4ccc(NC(=S)NC(=O)Cc5ccc(F)cc5)cc4F)c3s2)c1 [drawing 361] |  |  |  |  |  |  |  |  | 25 to 50
COCCNCc1ccc(-c2cc3nccc(Oc4ccc(NC(=S)NC(=O)Cc5ccccc5OC)cc4F)c3s2)nc1 [drawing 311] |  |  |  | < 0.25 | 0.25 to 0.5 | 0.25 to 0.5 | < 0.25 | < 0.25 | 
COCCNCc1ccc(-c2cc3nccc(Oc4ccc(NC(=O)CC(=O)N(C)c5ccc(F)cc5)cc4F)c3s2)nc1 [drawing 352] |  |  |  | < 0.25 | 0.25 to 0.5 | 0.25 to 0.5 | < 0.25 | < 0.25 | 
CN(C)CCOC(=O)N1CC=C(c2cc3nccc(Oc4ccc(NC(=O)CC(=O)N(C)c5ccccc5)cc4F)c3s2)CC1 |  |  |  | < 0.25 | > 1 | 0.25 to 0.5 | < 0.25 | < 0.25 | 
COCCNCc1ccc(-c2cc3nccc(Oc4ccc(NC(=O)C5(C(=O)Nc6ccccc6)CC5)cc4F)c3s2)cc1 [drawing 310] |  |  |  | < 0.25 | < 0.25 | < 0.25 | < 0.25 | < 0.25 | 
COC[C@H](C)NCc1ccc(-c2cc3nccc(Oc4ccc(NC(=S)NC(=O)Cc5ccc(F)cc5)cc4F)c3s2)cc1 |  |  |  | < 0.25 | 0.25 to 0.5 | 0.25 to 0.5 | < 0.25 | < 0.25 | 
CS(=O)(=O)CCNCc1ccc(-c2cc3nccc(Oc4ccc(NC(=S)NC(=O)Cc5ccc(F)cc5)cc4F)c3s2)cc1 |  |  |  | < 0.25 | 0.25 to 0.5 | 0.25 to 0.5 | < 0.25 | < 0.25 | 
CS(=O)(=O)CCNCc1cccc(-c2cc3nccc(Oc4ccc(NC(=S)NC(=O)Cc5ccc(F)cc5)cc4F)c3s2)c1 |  |  |  | < 0.25 | > 1 | > 1 | < 0.25 | < 0.25 | 
COCCNCc1ccc(-c2cc3nccc(Oc4ccc(NC(=S)NC(=O)Cc5ccc(F)cc5)cc4F)c3s2)o1 |  |  |  | < 0.25 | > 1 | > 1 | < 0.25 | < 0.25 | 
COCCNCCn1cc(-c2cc3nccc(Oc4ccc(NC(=O)C5(C(=O)Nc6ccccc6)CC5)cc4F)c3s2)cn1 |  |  |  | < 0.25 | < 0.25 | < 0.25 | < 0.25 | < 0.25 | 
COCCNCc1ccc(-c2cc3nccc(Oc4ccc(NC(=S)NC(=O)Cc5ccccc5OC)cc4F)c3s2)nc1 [drawing 365] |  |  | 25 to 50 |  |  |  |  |  | 
CSCCNCc1ccc(-c2cc3nccc(Oc4ccc(NC(=S)NC(=O)Cc5ccccc5)cc4F)c3s2)cc1 |  |  |  | < 0.25 | 0.25 to 0.5 | 0.25 to 0.5 | < 0.25 | < 0.25 | 
COCCNCc1ccc(-c2cc3nccc(Oc4ccc(NC(=S)NC(=O)Cc5ccccc5)cc4F)c3s2)cn1 [drawing 308] |  |  |  | 0.25 to 0.5 | 0.25 to 0.5 | 0.25 to 0.5 | < 0.25 | < 0.25 | 
COCCNCc1cccc(-c2cc3nccc(Oc4ccc(NC(=S)NC(=O)Cc5ccccc5OC)cc4F)c3s2)c1 |  |  |  | < 0.25 | 0.25 to 0.5 | 0.25 to 0.5 | < 0.25 | < 0.25 | 
